Values joined by “and” are separate entries in the source; they are usually repeats but may differ in a detail not shown here. Equal values may be shown once. Toxic doses and inconclusive results are not listed. Rule as the data show it: active = T/C of 150% or more; inactive = T/C below 125%.
Test system: L1210 leukemia ip in BDF1 mice, survival T/C
Experiment: NCI In Vivo Anticancer Drug Screen. Data for tumor model L1210 Leukemia (intraperitoneal) in B6D2F1 (BDF1) mice
Conditions: higher = longer survival
In short: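 Survival endpoint. Drug-treated group vs vehicle group, expressed as T divided by C. Tumor passaged by transplantation.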

Measured: T/C

C[n+]1c2ccccc2nc2c(N)cc(N)cc21
inactive: endpoint: mean survival time, dose: 1.0 mg/kg/injection, schedule: Q03HX024 (ip), vehicle: saline 101 % of control | endpoint: mean survival time, dose: 1.25 mg/kg/injection, schedule: Q#A X030 (ip), vehicle: water 104 % of control | endpoint: mean survival time, dose: 2.0 mg/kg/injection, schedule: Q01DX005 (iv), vehicle: saline 99 % of control | endpoint: mean survival time, dose: 2.0 mg/kg/injection, schedule: Q01DX009 (ip), vehicle: saline 96 % of control | endpoint: mean survival time, dose: 2.0 mg/kg/injection, schedule: Q03HX016 (ip), vehicle: saline 101 % of control | endpoint: mean survival time, dose: 2.0 mg/kg/injection, schedule: Q03HX024 (ip), vehicle: saline 107 % of control | endpoint: mean survival time, dose: 2.5 mg/kg/injection, schedule: Q01DX010 (oral), vehicle: water 105 % of control | endpoint: mean survival time, dose: 2.5 mg/kg/injection, schedule: Q#A X030 (ip), vehicle: water 107 % of control | endpoint: mean survival time, dose: 3.0 mg/kg/injection, schedule: Q01DX Z (ip), vehicle: saline 109 % of control | endpoint: mean survival time, dose: 3.12 mg/kg/injection, schedule: Q01DX001 (ip), vehicle: water 109 % of control and 110 % of control | endpoint: mean survival time, dose: 4.0 mg/kg/injection, schedule: Q01DX001 (iv), vehicle: saline 94 % of control | endpoint: mean survival time, dose: 4.0 mg/kg/injection, schedule: Q01DX005 (iv), vehicle: saline 96 % of control | endpoint: mean survival time, dose: 4.0 mg/kg/injection, schedule: Q01DX007 (iv), vehicle: saline 113 % of control | endpoint: mean survival time, dose: 4.0 mg/kg/injection, schedule: Q01DX009 (ip), vehicle: saline 104 % of control | endpoint: mean survival time, dose: 4.0 mg/kg/injection, schedule: Q01DX Z (sc), vehicle: steriod suspending solution 103 % of control | endpoint: mean survival time, dose: 4.0 mg/kg/injection, schedule: Q03HX008 (ip), vehicle: saline 107 % of control | endpoint: mean survival time, dose: 4.0 mg/kg/injection, schedule: Q03HX016 (ip), vehicle: saline 96 % of control | endpoint: mean survival time, dose: 4.0 mg/kg/injection, schedule: Q03HX024 (ip), vehicle: saline 100 % of control | endpoint: mean survival time, dose: 4.4 mg/kg/injection, schedule: Q#A X Z (ip), vehicle: carboxymethylcellulose (CMC) 110 % of control | endpoint: mean survival time, dose: 5.0 mg/kg/injection, schedule: Q01DX001 (ip), vehicle: saline 103 % of control | endpoint: mean survival time, dose: 5.0 mg/kg/injection, schedule: Q01DX009 (ip), vehicle: saline 111 % of control | endpoint: mean survival time, dose: 5.0 mg/kg/injection, schedule: Q01DX Z (im), vehicle: saline 104 % of control | endpoint: mean survival time, dose: 5.0 mg/kg/injection, schedule: Q01DX Z (ip), vehicle: saline 112 % of control | endpoint: mean survival time, dose: 6.25 mg/kg/injection, schedule: Q01DX001 (ip), vehicle: water 110 % of control | endpoint: mean survival time, dose: 6.65 mg/kg/injection, schedule: Q#A X Z (ip), vehicle: carboxymethylcellulose (CMC) 104 % of control | endpoint: mean survival time, dose: 8.0 mg/kg/injection, schedule: Q01DX001 (iv), vehicle: saline 96 % of control | endpoint: mean survival time, dose: 8.0 mg/kg/injection, schedule: Q01DX005 (iv), vehicle: saline 93 % of control | endpoint: mean survival time, dose: 8.0 mg/kg/injection, schedule: Q01DX007 (iv), vehicle: saline 104 % of control | endpoint: mean survival time, dose: 8.0 mg/kg/injection, schedule: Q01DX009 (ip), vehicle: saline 101 % of control | endpoint: mean survival time, dose: 8.0 mg/kg/injection, schedule: Q01DX Z (sc), vehicle: steriod suspending solution 109 % of control | endpoint: mean survival time, dose: 8.0 mg/kg/injection, schedule: Q03HX008 (ip), vehicle: saline 110 % of control | endpoint: mean survival time, dose: 8.0 mg/kg/injection, schedule: Q03HX016 (ip), vehicle: saline 101 % of control | endpoint: mean survival time, dose: 8.0 mg/kg/injection, schedule: Q03HX024 (ip), vehicle: saline 112 % of control | endpoint: mean survival time, dose: 8.0 mg/kg/injection, schedule: Q04DX003 (ip), vehicle: saline 101 % of control | endpoint: mean survival time, dose: 10.0 mg/kg/injection, schedule: Q01DX001 (ip), vehicle: saline 103 % of control | endpoint: mean survival time, dose: 10.0 mg/kg/injection, schedule: Q01DX010 (oral), vehicle: water 113 % of control | endpoint: mean survival time, dose: 10.0 mg/kg/injection, schedule: Q01DX Z (im), vehicle: saline 106 % of control | endpoint: mean survival time, dose: 12.5 mg/kg/injection, schedule: Q01DX001 (ip), vehicle: water 112 % of control | endpoint: mean survival time, dose: 16.0 mg/kg/injection, schedule: Q01DX001 (iv), vehicle: saline 96 % of control | endpoint: mean survival time, dose: 16.0 mg/kg/injection, schedule: Q01DX005 (iv), vehicle: saline 102 % of control | endpoint: mean survival time, dose: 16.0 mg/kg/injection, schedule: Q01DX009 (sc), vehicle: saline 104 % of control | endpoint: mean survival time, dose: 16.0 mg/kg/injection, schedule: Q01DX Z (sc), vehicle: steriod suspending solution 104 % of control and 105 % of control | endpoint: mean survival time, dose: 16.0 mg/kg/injection, schedule: Q03HX008 (ip), vehicle: saline 107 % of control | endpoint: mean survival time, dose: 16.0 mg/kg/injection, schedule: Q03HX016 (ip), vehicle: saline 104 % of control and 113 % of control | endpoint: mean survival time, dose: 16.0 mg/kg/injection, schedule: Q04DX003 (ip), vehicle: saline 103 % of control | endpoint: mean survival time, dose: 16.0 mg/kg/injection, schedule: Q08DX002 (ip), vehicle: saline 102 % of control | endpoint: mean survival time, dose: 20.0 mg/kg/injection, schedule: Q01DX001 (ip), vehicle: saline 101 % of control | endpoint: mean survival time, dose: 20.0 mg/kg/injection, schedule: Q01DX009 (ip), vehicle: saline 110 % of control | endpoint: mean survival time, dose: 20.0 mg/kg/injection, schedule: Q01DX010 (oral), vehicle: water 107 % of control and 111 % of control | endpoint: mean survival time, dose: 20.0 mg/kg/injection, schedule: Q01DX Z (im), vehicle: saline 108 % of control | endpoint: mean survival time, dose: 20.0 mg/kg/injection, schedule: Q01DX Z (ip), vehicle: saline 114 % of control | endpoint: mean survival time, dose: 20.0 mg/kg/injection, schedule: Q01DX Z (oral), vehicle: saline 106 % of control | endpoint: mean survival time, dose: 25.0 mg/kg/injection, schedule: Q01DX001 (ip), vehicle: other 112 % of control | endpoint: mean survival time, dose: 32.0 mg/kg/injection, schedule: Q01DX001 (ip), vehicle: saline 108 % of control | endpoint: mean survival time, dose: 32.0 mg/kg/injection, schedule: Q01DX001 (iv), vehicle: saline 96 % of control | endpoint: mean survival time, dose: 32.0 mg/kg/injection, schedule: Q01DX009 (oral), vehicle: saline 102 % of control | endpoint: mean survival time, dose: 32.0 mg/kg/injection, schedule: Q01DX009 (sc), vehicle: saline 106 % of control | endpoint: mean survival time, dose: 32.0 mg/kg/injection, schedule: Q01DX Z (sc), vehicle: steriod suspending solution 100 % of control | endpoint: mean survival time, dose: 32.0 mg/kg/injection, schedule: Q03HX016 (ip), vehicle: saline 110 % of control | endpoint: mean survival time, dose: 32.0 mg/kg/injection, schedule: Q04DX003 (ip), vehicle: saline 107 % of control | endpoint: mean survival time, dose: 32.0 mg/kg/injection, schedule: Q08DX002 (ip), vehicle: saline 98 % of control | endpoint: mean survival time, dose: 37.0 mg/kg/injection, schedule: Q01DX001 (ip), vehicle: other 107 % of control | endpoint: mean survival time, dose: 40.0 mg/kg/injection, schedule: Q01DX001 (ip), vehicle: saline 110 % of control | endpoint: mean survival time, dose: 40.0 mg/kg/injection, schedule: Q01DX009 (ip), vehicle: saline 97 % of control | endpoint: mean survival time, dose: 40.0 mg/kg/injection, schedule: Q01DX010 (oral), vehicle: water 104 % of control | endpoint: mean survival time, dose: 40.0 mg/kg/injection, schedule: Q01DX Z (ip), vehicle: saline 109 % of control | endpoint: mean survival time, dose: 50.0 mg/kg/injection, schedule: Q01DX001 (ip), vehicle: water 110 % of control | endpoint: mean survival time, dose: 56.0 mg/kg/injection, schedule: Q01DX001 (ip), vehicle: other 111 % of control | endpoint: mean survival time, dose: 61.6 mg/kg/injection, schedule: Q07DX Z (ip), vehicle: carboxymethylcellulose (CMC) 112 % of control | endpoint: mean survival time, dose: 64.0 mg/kg/injection, schedule: Q01DX001 (ip), vehicle: saline 114 % of control | endpoint: mean survival time, dose: 64.0 mg/kg/injection, schedule: Q01DX001 (oral), vehicle: saline 106 % of control | endpoint: mean survival time, dose: 64.0 mg/kg/injection, schedule: Q01DX001 (sc), vehicle: saline 98 % of control | endpoint: mean survival time, dose: 64.0 mg/kg/injection, schedule: Q01DX009 (oral), vehicle: saline 98 % of control | endpoint: mean survival time, dose: 64.0 mg/kg/injection, schedule: Q01DX Z (sc), vehicle: steriod suspending solution 101 % of control | endpoint: mean survival time, dose: 64.0 mg/kg/injection, schedule: Q08DX002 (ip), vehicle: saline 104 % of control | endpoint: mean survival time, dose: 80.0 mg/kg/injection, schedule: Q01DX001 (ip), vehicle: saline 103 % of control | endpoint: mean survival time, dose: 80.0 mg/kg/injection, schedule: Q01DX010 (oral), vehicle: water 110 % of control | endpoint: mean survival time, dose: 93.1 mg/kg/injection, schedule: Q07DX Z (ip), vehicle: carboxymethylcellulose (CMC) 110 % of control | endpoint: mean survival time, dose: 128.0 mg/kg/injection, schedule: Q01DX001 (oral), vehicle: saline 98 % of control | endpoint: mean survival time, dose: 128.0 mg/kg/injection, schedule: Q01DX001 (sc), vehicle: saline 98 % of control | endpoint: mean survival time, dose: 128.0 mg/kg/injection, schedule: Q08DX002 (ip), vehicle: saline 104 % of control | endpoint: mean survival time, dose: 140.0 mg/kg/injection, schedule: Q07DX Z (ip), vehicle: carboxymethylcellulose (CMC) 112 % of control | endpoint: mean survival time, dose: 160.0 mg/kg/injection, schedule: Q01DX010 (oral), vehicle: water 110 % of control | endpoint: mean survival time, dose: 256.0 mg/kg/injection, schedule: Q01DX001 (oral), vehicle: saline 98 % of control | endpoint: mean survival time, dose: 256.0 mg/kg/injection, schedule: Q01DX001 (sc), vehicle: saline 105 % of control | endpoint: mean survival time, dose: 256.0 mg/kg/injection, schedule: Q01DX009 (oral), vehicle: saline 104 % of control and 114 % of control | endpoint: mean survival time, dose: 288.0 mg/kg/injection, schedule: Q01DX Z (oral), vehicle: other 103 % of control | endpoint: mean survival time, dose: 432.0 mg/kg/injection, schedule: Q01DX Z (oral), vehicle: other 95 % of control | endpoint: mean survival time, dose: 512.0 mg/kg/injection, schedule: Q01DX001 (oral), vehicle: saline 106 % of control | endpoint: mean survival time, dose: 512.0 mg/kg/injection, schedule: Q01DX009 (oral), vehicle: saline 112 % of control | endpoint: mean survival time, dose: 1024.0 mg/kg/injection, schedule: Q01DX001 (oral), vehicle: saline 109 % of control | endpoint: median survival time, dose: 5.0 mg/kg/injection, schedule: Q01DX009 (ip), vehicle: saline 110 % of control and 113 % of control

— PubChem BioAssay AID248 (DTP/NCI, 2004)
